Data taken from PubChem BioAssay (NCI).
Several values for one entry are separate records, joined by “and”; a condition that tells them apart may be missing. Identical values can stand only once.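 The compound was tested at five concentrations on cells cultured in 96-well plates, with a 48-hour exposure period. Here, GI50 denotes the concentration required for 50% inhibition of growth. Definition used: TGI = concentration required for complete inhibition of growth.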

Experiments:
Test in all cases: growth of human tumour cells (NCI), 48 h
[1] = test system: NCI/ADR-RES ovarian
[2] = test system: SR leukemia
[3] = test system: PC-3 prostate
[4] = test system: SK-MEL-2 melanoma
[5] = test system: NCI-H23 lung
[6] = test system: HCT-116 colon
[7] = test system: COLO 205 colon
[8] = test system: K-562 leukemia

SMILES	GI50 [1]	TGI [1]	GI50 [2]	TGI [2]	GI50 [3]	TGI [3]	GI50 [4]	TGI [4]	GI50 [5]	TGI [5]	GI50 [6]	TGI [6]	GI50 [7]	TGI [7]	GI50 [8]	TGI [8]
COc1ccc(C2C(c3ccccc3)C(=O)N2c2cc(OC)c(OC)c(OC)c2)cc1I (stereo not given)	0.319 µM	> 100 µM	0.286 µM	> 100 µM	0.488 µM	> 100 µM	0.572 µM	> 100 µM	0.623 µM	> 100 µM	0.343 µM	12.4 µM	0.228 µM	0.648 µM	0.339 µM	> 100 µM
COc1ccc2[nH]c(-c3cccc(N(C)C)c3)cc(=O)c2c1	0.487 µM	–	–	1.73 µM	0.435 µM	> 100 µM	0.786 µM	–	0.664 µM	–	0.56 µM	–	0.379 µM	–	0.321 µM	17.3 µM
O=C(O)C(Br)C(Br)c1ccccc1[N+](=O)[O-] (stereo not given)	–	> 100 µM	–	> 100 µM	–	> 100 µM	–	> 100 µM	–	> 100 µM	–	> 100 µM	–	> 100 µM	–	> 100 µM
O=C(O)c1ccc(S(=O)(=O)N=Nc2c(O)[nH]c3ccccc23)cc1	–	> 100 µM	–	> 100 µM	–	> 100 µM	–	> 100 µM	–	> 100 µM	–	> 100 µM	–	> 100 µM	–	> 100 µM
Cc1ccc2[nH]c(C(=O)NN3C(=O)CSC34CCCC(C)C4)c(-c3ccccc3)c2c1 (stereo not given)	–	–	–	–	14.2 µM	29.6 µM	9.12 µM	23.1 µM	20 µM	36 µM	14.6 µM	31 µM	17.5 µM	35.4 µM	12.7 µM	39.2 µM
O=C(NCCN1CCOCC1)Nc1ccc(-c2cc3c(Nc4ccc(Oc5cccc(C(F)(F)F)c5)c(Cl)c4)ncnc3s2)cc1	6.74 µM	19.9 µM	1.47 µM	27.6 µM	1.41 µM	5.6 µM	1.25 µM	2.98 µM	1.51 µM	5.76 µM	1.49 µM	5.05 µM	1.25 µM	2.95 µM	0.706 µM	3.31 µM
Cc1ccccc1-n1c(/C=C\c2ccccn2)nc2ccccc2c1=O	7.16 µM	79.5 µM	3.05 µM	20.4 µM	6.41 µM	65.4 µM	14.4 µM	38.5 µM	6.06 µM	57.4 µM	6.87 µM	22 µM	9.65 µM	28.5 µM	4.42 µM	90.2 µM
COc1cccc2c1cc([N+](=O)[O-])c1c(C(=O)O)cc3c(c12)OCO3	42.8 µM	> 100 µM	24.9 µM	75.7 µM and 78.9 µM	27.8 µM	> 100 µM	22.9 µM	52.3 µM and > 100 µM	29.6 µM	> 100 µM	–	> 80.6 µM	1.12 µM	2.8 µM and 2.97 µM	46.3 µM	> 100 µM
COC(=O)c1c2c(c(C)[n+]([O-])c1C)C(=O)C(NCc1cccc(OC)c1)=CC2=O	2.36 µM	6.74 µM	2.36 µM	> 100 µM	2.63 µM	14.8 µM	2.55 µM	7.49 µM	1.84 µM	4.41 µM	2.53 µM	10 µM	1.1 µM	2.86 µM	2.98 µM	> 100 µM
COc1ccccc1CNC(=O)C1c2ccccc2C(=O)N(CC(C)C)C1c1cccs1 (stereo not given)	20.6 µM	> 100 µM	13.5 µM	74.7 µM	15.9 µM	> 100 µM	16.6 µM	36.9 µM	25.8 µM	> 100 µM	15.3 µM	77.6 µM	18.2 µM	39.1 µM	20.3 µM	> 100 µM
CCCCCCNC(=O)Oc1ccc(/C(=C(\C)c2ccccc2)c2ccc(OCCN3CCCCC3)cc2)cc1	3.12 µM	12.7 µM	1.73 µM	4.39 µM	2.58 µM	11.5 µM	2 µM	4.33 µM	3.06 µM	11.6 µM	1.49 µM	2.89 µM	1.78 µM	3.57 µM	1.7 µM	4.96 µM
COc1ccc(NC(=O)c2sc3nc(C)c(C(O)c4ccc(OC)cc4)cc3c2N)cc1 (stereo not given)	1.28 µM	4.41 µM	0.256 µM	> 50 µM	1.89 µM	> 50 µM	1.74 µM	> 50 µM	2.06 µM	> 50 µM	0.983 µM	> 50 µM	1.57 µM	31.6 µM	0.509 µM	> 50 µM
C[C@@]1(c2ncncc2F)NC(=O)c2cc(-c3cn[nH]c3)ccc21	37.9 µM	> 100 µM	15.6 µM	> 100 µM	27.2 µM	> 100 µM	23.8 µM	68.2 µM	18.7 µM	> 100 µM	5.48 µM	> 100 µM	–	–	46.8 µM	> 100 µM
COc1cc(-c2nn(C(=O)NS(=O)(=O)c3ccc(C)cc3)cc2-c2ccncc2)ccc1Cl	3.93 µM	80.6 µM	5.1 µM	40.9 µM	16.1 µM	> 100 µM	4.65 µM	15.4 µM	5.27 µM	28.9 µM	5.63 µM	32.2 µM	3.89 µM	15.4 µM	–	–
CN(C)CCOc1nc2c3cccnc3cc(-c3cccc(Cl)c3)c2c2ncccc12	1.42 µM	2.82 µM	0.371 µM	2.15 µM	2.17 µM	5.95 µM	1.9 µM	3.79 µM	1.51 µM	3.34 µM	1.06 µM	2.32 µM	1.23 µM	2.74 µM	1.13 µM	2.74 µM
CC(F)(F)c1cc(F)ccc1-c1sc2cc(O)ccc2c1Oc1ccc(/C=C/C(=O)O)cc1	6.66 µM	40.1 µM	3.66 µM	> 100 µM	7.7 µM	24.7 µM	4.43 µM	20.8 µM	15.2 µM	37.4 µM	8.48 µM	22.1 µM	–	–	6.7 µM	79.2 µM
CN1CCN(Cc2ccc(NC(=O)c3[nH]ncc3Nc3ncnc4sccc34)cc2)CC1	1.07 µM	> 100 µM	0.219 µM	0.73 µM	0.394 µM	> 100 µM	0.368 µM	2.26 µM	–	–	–	–	–	–	0.235 µM	> 100 µM

SMILES	GI50 [1]	TGI [1]	GI50 [2]	TGI [2]	GI50 [3]	TGI [3]	GI50 [4]	TGI [4]	GI50 [5]	TGI [5]	GI50 [6]	TGI [6]	GI50 [7]	TGI [7]	GI50 [8]	TGI [8]
Oc1ccc(/C=N/Nc2nc3ccccc3s2)c(O)c1	1.22 µM	> 100 µM	1.53 µM	11.4 µM	4 µM	> 100 µM	–	–	3.03 µM	> 100 µM	2.78 µM	17.2 µM	3.11 µM	21.3 µM	2.59 µM	> 100 µM
COc1cc(/C=C2\CC3C4CC=C5C[C@@H](N6CCCC6)CC[C@]5(C)C4CC[C@]3(C)[C@H]2OC(C)=O)ccc1OCCN1CCCCC1 (stereo not given in full)	1.74 µM	3.2 µM	–	–	1.54 µM	3.72 µM	1.87 µM	3.36 µM	1.68 µM	3.14 µM	0.275 µM	0.85 µM	–	–	0.105 µM	0.71 µM
COc1cc(-c2nc(SCC(=O)Nc3ccc(C(C)=O)cc3)[nH]c(=O)c2C#N)cc(OC)c1OC	> 100 µM	> 100 µM	19 µM	> 100 µM	36.4 µM	> 100 µM	–	–	> 100 µM	> 100 µM	42.1 µM	> 100 µM	> 100 µM	> 100 µM	37.7 µM	> 100 µM
COc1cc(OC)c(OC)cc1/C=C1\C=Cc2ccccc21	–	> 100 µM	–	> 100 µM	–	> 100 µM	–	–	–	> 100 µM	–	21.9 µM	–	> 100 µM	–	> 100 µM
COc1cccc(Cn2cc3c(c2)-c2oncc2CC3)c1	0.317 µM	–	0.312 µM	6.03 µM	0.751 µM	> 100 µM	–	–	0.471 µM	> 80.7 µM	0.43 µM	29.4 µM	0.313 µM	1.05 µM	0.315 µM	> 100 µM
CC(C)c1cc(CNc2nc(Nc3cc(C4CC4)[nH]n3)cc(N3CCN(C)CC3)n2)on1	> 10 µM and 6.84 µM	> 10 µM and 25.4 µM	0.0422 µM and < 0.0198 µM	3.42 µM and 1.47 µM	–	> 10 µM and 7.02 µM	1.69 µM and 0.646 µM	> 10 µM and 2.29 µM	1.54 µM and 0.173 µM	> 10 µM and 3.37 µM	–	> 10 µM and 44.6 µM	–	–	–	> 10 µM and 14.5 µM
O=C(Nc1cccc(C(F)(F)F)c1)c1cccc(NC2=C(Cl)C(=O)N(Cc3ccccc3)C2=O)c1	18.1 µM	53.5 µM	–	–	3.1 µM	14.3 µM	14.6 µM	40.1 µM	25.4 µM	64.8 µM	13.5 µM	39.2 µM	32.3 µM	> 100 µM	3.02 µM	17.6 µM
CCOC(=O)CNC(=O)CCCn1c(=O)c2c3ccccc3n(C)c2n2nnc(-c3ccccc3)c12	> 50 µM	> 50 µM	–	–	8.59 µM	> 50 µM	9.46 µM	29.1 µM	11.8 µM	> 50 µM	9.04 µM	27.3 µM	> 50 µM	> 50 µM	4.73 µM	> 50 µM
CCOC(=O)c1cc2cc(NC(=O)c3cc4cc([N+](=O)[O-])ccc4n3C)ccc2n1C	16.8 µM	45.3 µM	–	–	22.6 µM	52.9 µM	> 100 µM	> 100 µM	12.3 µM	37 µM	14.6 µM	30.3 µM	76.5 µM	> 100 µM	59.1 µM	> 100 µM
COc1ccc(OC)c(-c2cc(-c3ccccc3)nn2-c2ccc(S(N)(=O)=O)cc2)c1	16.2 µM	31.8 µM	2.82 µM	> 100 µM	12.2 µM	28 µM	27.5 µM	> 100 µM	15.8 µM	30.2 µM	–	–	–	–	2.68 µM	6.38 µM
Oc1ccc(Br)cc1/C=N/NC(=S)NC12CC3CC(CC(C3)C1)C2	2.71 µM	7.89 µM	0.682 µM	3.47 µM	1.64 µM	4.94 µM	2.09 µM	4.59 µM	–	–	1.57 µM	4.57 µM	3.44 µM	11.1 µM	1.87 µM	5.3 µM
COc1ccc(NC(=O)Nc2ccc(Nc3nc(C)cc(Nc4ccc(C)cc4)n3)cc2)cc1	1.33 µM	3.75 µM	–	–	1.46 µM	2.88 µM	1.85 µM	3.57 µM	–	–	–	–	1.94 µM	3.62 µM	–	–
O=C1NC(=O)C2(CCC(O)C2)c2cc[n+]([O-])cc21 (stereo not given)	–	–	–	> 100 µM	–	> 100 µM	–	> 100 µM	–	> 100 µM	–	> 100 µM	–	> 100 µM	–	> 100 µM
COc1ccc2c(c1OC)-c1c(c3ccc([N+](=O)[O-])cc3c(=O)n1CCCN=[N+]=[N-])C2=O	12.2 µM	> 100 µM	–	–	22 µM	> 100 µM	> 100 µM	> 100 µM	17.5 µM	> 100 µM	2.93 µM	38.2 µM	> 100 µM	> 100 µM	23.3 µM	> 100 µM
Cc1ccc(C2SCc3nc4ccc(C(=O)c5ccccc5)cc4n32)cc1 (stereo not given)	2.37 µM	8.38 µM	–	–	10.5 µM	> 67.5 µM	12.1 µM	47.3 µM	14.4 µM	> 62 µM	3.99 µM	41.3 µM	6.18 µM	> 100 µM	3.74 µM	> 100 µM
CC(C)=CCC/C(C)=C/CC/C(=C/COP(=O)(OCc1ccc([N+](=O)[O-])o1)N(C)CCCCCl)CC=C(C)C (stereo not given)	6.11 µM	21.3 µM	3.02 µM	> 100 µM	8.62 µM	24.3 µM	3.09 µM	14.1 µM	–	–	2.06 µM	7.97 µM	8.01 µM	66.4 µM	9.45 µM	> 100 µM
Cc1ccc(S(=O)(=O)NC(CCC(=O)Nc2ccccc2)C(=O)Nc2ccccc2)cc1 (stereo not given)	0.475 µM	2.19 µM	–	–	–	–	0.427 µM	1.47 µM	–	–	0.273 µM	1.31 µM	–	–	–	–
